Reference: ChEMBL document CHEMBL5058643, “Data for DCP probe BI-2081” (2022)

Columns and labels:
Conditions in all cases: Compound concentration 10.0 uM
[1] = target: T1, 5-hydroxytryptamine receptor 3A (Homo sapiens) (UniProt P46098)
T1 sequence (whole entry): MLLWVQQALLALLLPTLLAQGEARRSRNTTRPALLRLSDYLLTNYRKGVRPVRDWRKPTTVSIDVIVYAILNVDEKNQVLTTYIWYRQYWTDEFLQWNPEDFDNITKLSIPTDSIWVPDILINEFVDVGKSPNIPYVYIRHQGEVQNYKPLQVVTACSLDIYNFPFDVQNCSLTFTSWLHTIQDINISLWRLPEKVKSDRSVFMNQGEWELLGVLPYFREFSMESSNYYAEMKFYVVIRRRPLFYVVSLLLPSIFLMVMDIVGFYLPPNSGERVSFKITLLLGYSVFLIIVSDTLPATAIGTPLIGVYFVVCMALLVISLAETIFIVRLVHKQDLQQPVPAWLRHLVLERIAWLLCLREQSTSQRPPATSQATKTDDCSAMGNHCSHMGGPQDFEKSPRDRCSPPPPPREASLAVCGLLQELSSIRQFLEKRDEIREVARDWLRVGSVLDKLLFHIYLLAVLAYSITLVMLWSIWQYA

[2] = target: Mu-type opioid receptor (Homo sapiens) (UniProt P35372)
[3] = target: Histamine H2 receptor (Homo sapiens) (UniProt P25021)
[4] = target: Histamine H3 receptor (Homo sapiens) (UniProt Q9Y5N1)
[5] = target: Histamine H4 receptor (Homo sapiens) (UniProt Q9H3N8)
[6] = target: T2, Alpha-2B adrenergic receptor (Homo sapiens) (UniProt P18089)
T2 sequence (whole entry): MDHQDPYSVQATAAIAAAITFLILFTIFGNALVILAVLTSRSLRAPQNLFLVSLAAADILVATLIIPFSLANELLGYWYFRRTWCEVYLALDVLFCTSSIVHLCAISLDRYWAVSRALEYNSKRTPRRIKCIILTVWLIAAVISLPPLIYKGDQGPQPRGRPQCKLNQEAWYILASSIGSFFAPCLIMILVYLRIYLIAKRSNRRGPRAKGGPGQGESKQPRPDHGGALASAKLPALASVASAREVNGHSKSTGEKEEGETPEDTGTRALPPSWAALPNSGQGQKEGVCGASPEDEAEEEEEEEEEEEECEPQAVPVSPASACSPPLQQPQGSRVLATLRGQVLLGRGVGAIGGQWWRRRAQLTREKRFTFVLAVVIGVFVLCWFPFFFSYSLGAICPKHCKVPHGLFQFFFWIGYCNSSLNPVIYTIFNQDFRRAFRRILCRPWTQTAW

[7] = target: T3, Alpha-2C adrenergic receptor (Homo sapiens) (UniProt P18825)
T3 sequence (whole entry): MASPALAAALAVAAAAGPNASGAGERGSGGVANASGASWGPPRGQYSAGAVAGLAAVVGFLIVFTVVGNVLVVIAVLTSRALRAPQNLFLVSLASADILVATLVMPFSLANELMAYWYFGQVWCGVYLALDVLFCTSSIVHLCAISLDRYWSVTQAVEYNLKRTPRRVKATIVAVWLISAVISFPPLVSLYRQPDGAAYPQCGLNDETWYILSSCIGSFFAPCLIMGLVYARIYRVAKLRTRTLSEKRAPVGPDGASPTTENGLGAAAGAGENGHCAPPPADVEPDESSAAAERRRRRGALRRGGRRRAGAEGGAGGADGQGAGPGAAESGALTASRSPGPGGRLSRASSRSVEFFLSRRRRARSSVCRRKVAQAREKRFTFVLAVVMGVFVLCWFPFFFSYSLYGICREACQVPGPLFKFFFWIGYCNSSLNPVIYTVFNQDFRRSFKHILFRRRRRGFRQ

[8] = target: T4, Muscarinic acetylcholine receptor M2 (Homo sapiens) (UniProt P08172)
T4 sequence (whole entry): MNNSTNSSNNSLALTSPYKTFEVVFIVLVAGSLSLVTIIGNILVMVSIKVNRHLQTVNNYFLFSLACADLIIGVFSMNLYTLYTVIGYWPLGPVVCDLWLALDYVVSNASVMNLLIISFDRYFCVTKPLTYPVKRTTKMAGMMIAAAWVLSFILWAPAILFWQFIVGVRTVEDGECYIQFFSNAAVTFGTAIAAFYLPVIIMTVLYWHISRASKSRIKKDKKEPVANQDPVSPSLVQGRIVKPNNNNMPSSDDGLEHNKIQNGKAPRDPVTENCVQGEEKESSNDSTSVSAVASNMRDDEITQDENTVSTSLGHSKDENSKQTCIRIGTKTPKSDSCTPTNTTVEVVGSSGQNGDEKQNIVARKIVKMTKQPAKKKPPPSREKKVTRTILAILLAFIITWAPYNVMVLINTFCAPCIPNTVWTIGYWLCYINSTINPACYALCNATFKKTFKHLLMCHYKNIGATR

[9] = target: Muscarinic acetylcholine receptor M3 (Homo sapiens, UniProt P20309)
[10] = target: T5, Alpha-1D adrenergic receptor (Homo sapiens) (UniProt P25100)
T5 sequence (whole entry): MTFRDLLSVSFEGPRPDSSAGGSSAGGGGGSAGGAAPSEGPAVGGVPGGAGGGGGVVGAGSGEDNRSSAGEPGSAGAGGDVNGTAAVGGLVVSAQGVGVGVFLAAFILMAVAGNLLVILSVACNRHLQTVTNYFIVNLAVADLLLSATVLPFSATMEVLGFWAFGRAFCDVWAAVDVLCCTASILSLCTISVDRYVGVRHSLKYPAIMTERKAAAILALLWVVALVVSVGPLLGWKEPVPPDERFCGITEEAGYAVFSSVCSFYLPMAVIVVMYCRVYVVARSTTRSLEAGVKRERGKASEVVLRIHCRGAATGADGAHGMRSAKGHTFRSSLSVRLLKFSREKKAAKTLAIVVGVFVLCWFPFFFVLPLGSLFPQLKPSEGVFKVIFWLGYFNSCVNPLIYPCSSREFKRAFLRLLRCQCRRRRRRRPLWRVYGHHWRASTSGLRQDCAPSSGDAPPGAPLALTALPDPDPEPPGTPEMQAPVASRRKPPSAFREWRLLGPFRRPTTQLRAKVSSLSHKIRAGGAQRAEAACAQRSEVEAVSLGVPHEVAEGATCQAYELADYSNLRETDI

Chain of Histamine H4 receptor (Homo sapiens) (Q9H3N8 whole entry): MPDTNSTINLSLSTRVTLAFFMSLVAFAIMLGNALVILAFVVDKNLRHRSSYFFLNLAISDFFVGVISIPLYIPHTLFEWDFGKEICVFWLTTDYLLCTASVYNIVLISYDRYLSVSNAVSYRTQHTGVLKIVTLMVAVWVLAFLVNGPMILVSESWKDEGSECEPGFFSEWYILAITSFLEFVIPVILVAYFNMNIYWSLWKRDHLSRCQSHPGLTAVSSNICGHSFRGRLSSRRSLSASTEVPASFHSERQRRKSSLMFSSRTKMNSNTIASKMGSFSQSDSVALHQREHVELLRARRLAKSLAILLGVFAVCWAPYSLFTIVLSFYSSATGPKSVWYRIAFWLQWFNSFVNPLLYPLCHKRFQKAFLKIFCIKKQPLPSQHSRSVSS
Chain of Histamine H2 receptor (Homo sapiens) (P25021 whole entry): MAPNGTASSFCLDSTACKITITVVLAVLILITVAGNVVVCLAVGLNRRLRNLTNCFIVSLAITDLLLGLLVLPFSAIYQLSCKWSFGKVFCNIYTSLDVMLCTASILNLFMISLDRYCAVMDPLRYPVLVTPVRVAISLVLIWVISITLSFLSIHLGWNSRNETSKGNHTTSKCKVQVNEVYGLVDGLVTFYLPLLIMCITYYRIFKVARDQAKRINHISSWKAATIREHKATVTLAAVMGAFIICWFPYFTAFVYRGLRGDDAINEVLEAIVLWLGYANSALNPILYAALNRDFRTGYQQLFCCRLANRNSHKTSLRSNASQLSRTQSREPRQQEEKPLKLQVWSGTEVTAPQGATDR
Chain of Histamine H3 receptor (Homo sapiens) (Q9Y5N1 whole entry): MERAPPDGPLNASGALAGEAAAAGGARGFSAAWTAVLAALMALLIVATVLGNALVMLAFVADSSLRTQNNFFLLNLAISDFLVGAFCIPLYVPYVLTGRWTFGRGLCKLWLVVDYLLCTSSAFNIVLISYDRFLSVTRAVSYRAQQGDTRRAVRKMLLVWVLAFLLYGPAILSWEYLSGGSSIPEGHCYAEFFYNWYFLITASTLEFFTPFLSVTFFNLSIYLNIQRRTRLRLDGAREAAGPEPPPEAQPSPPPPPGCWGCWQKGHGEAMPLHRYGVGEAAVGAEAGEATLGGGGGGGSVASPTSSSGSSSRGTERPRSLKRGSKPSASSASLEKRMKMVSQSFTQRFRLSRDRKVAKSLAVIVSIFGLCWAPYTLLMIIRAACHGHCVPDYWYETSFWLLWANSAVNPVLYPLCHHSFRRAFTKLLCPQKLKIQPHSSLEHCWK
Chain of Muscarinic acetylcholine receptor M3 (P20309 whole entry, looked up): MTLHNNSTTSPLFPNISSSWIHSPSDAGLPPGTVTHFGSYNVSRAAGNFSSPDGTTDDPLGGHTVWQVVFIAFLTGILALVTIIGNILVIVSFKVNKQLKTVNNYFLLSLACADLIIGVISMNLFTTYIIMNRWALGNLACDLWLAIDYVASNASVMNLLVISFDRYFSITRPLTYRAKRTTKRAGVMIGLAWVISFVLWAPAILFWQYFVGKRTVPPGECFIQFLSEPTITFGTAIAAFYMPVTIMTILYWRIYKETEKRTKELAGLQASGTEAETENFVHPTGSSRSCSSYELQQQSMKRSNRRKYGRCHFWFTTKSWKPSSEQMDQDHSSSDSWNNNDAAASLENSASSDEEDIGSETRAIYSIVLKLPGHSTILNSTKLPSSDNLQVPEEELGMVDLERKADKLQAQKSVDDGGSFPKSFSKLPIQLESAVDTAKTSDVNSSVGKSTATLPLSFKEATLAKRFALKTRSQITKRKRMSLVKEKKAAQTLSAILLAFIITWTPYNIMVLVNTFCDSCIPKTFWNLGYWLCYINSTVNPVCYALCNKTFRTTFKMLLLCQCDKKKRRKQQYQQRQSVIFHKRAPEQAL
Chain of Mu-type opioid receptor (Homo sapiens) (P35372 whole entry): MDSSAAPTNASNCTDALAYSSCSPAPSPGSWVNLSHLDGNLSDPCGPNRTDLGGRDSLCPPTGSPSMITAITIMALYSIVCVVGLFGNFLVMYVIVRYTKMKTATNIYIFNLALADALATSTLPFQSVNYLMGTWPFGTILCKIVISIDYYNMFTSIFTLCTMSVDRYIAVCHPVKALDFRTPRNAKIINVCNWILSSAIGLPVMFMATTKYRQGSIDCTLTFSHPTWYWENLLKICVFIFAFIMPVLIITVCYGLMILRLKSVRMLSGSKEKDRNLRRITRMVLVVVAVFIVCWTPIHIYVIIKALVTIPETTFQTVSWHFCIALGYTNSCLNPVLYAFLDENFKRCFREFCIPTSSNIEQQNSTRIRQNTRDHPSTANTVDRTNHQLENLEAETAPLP

| SMILES | inhibition [1] [%] | inhibition [2] [%] | inhibition [3] [%] | inhibition [4] [%] | inhibition [5] [%] | inhibition [6] [%] | inhibition [7] [%] | inhibition [8] [%] | inhibition [9] [%] | inhibition [10] [%] |
| --- | --- | --- | --- | --- | --- | --- | --- | --- | --- | --- |
| COCCCS(=O)(=O)c1cc(C)c(-c2ccc(F)c3c2CC[C@H]3Oc2ccc3c(c2)OC[C@H]3CC(=O)O)c(C)c1 | 1.85 | 13.7 | 15 | 3 | -2.95 | 3.95 | 5.58 | -3.61 | -1.57 | -5.9 |
| Cc1cc(OCCC(C)(C)O)cc(C)c1-c1ccc(F)c2c1CC[C@H]2Oc1ccc2c(c1)OC[C@H]2CC(=O)O | 9.64 | 15.6 | 8.54 | 9.84 | -5.97 | -1.99 | 14.5 | -3.23 | 68.2 | 5.84 |
